Starred links: 1 amine or outer side, 2 acyl side, 3 side chain; linkers in the order of their positions; H or OH if unused. Positions of bridges follow the written chain, without caps; N, C: chain ends. Non-standard residues stand in square brackets, D forms with d. Residues, ends and D or L forms follow the SMILES beside them. *: point of attachment. Phe(4-tBu) = CC(C)(C)c1ccc(C[C@H](N)C(=O)O)cc1; Phe(3,4-F2) = N[C@@H](Cc1ccc(F)c(F)c1)C(=O)O; dβ3hPhg = O=C(C[C@H](N[*:1])c1ccccc1)[*:2]; Phe(3-Cl) = N[C@@H](Cc1cccc(Cl)c1)C(=O)O; Phe(4-F) = N[C@@H](Cc1ccc(F)cc1)C(=O)O; X5 = CCN(CC)CCC[C@H](N[*:1])C(=O)[*:2]; 1Nal = N[C@@H](Cc1cccc2ccccc12)C(=O)O; 2Nal = N[C@@H](Cc1ccc2ccccc2c1)C(=O)O; Bta = N[C@@H](Cc1csc2ccccc12)C(=O)O; d(hCha) = N[C@H](CCC1CCCCC1)C(=O)O; Hydrocinnamoyl = O=C(CCc1ccccc1)*; Hyp = O=C(O)[C@@H]1C[C@@H](O)CN1; d(hLeu) = CC(C)CC[C@@H](N)C(=O)O; 4Pal = N[C@@H](Cc1ccncc1)C(=O)O; Cha = N[C@@H](CC1CCCCC1)C(=O)O; dCha = N[C@H](CC1CCCCC1)C(=O)O; dChg = N[C@@H](C(=O)O)C1CCCCC1; Nle = CCCC[C@H](N)C(=O)O; Orn = NCCC[C@H](N)C(=O)O; Aze = O=C(O)[C@@H]1CCN1; Dab = NCC[C@H](N)C(=O)O

For the first assay, the target named is T1, human C5aR(CD88) (Homo sapiens, UniProt P21730).
T1 construct: expressed in transfected cells; host or cells: rat basophilic leukemia cells (RBL)
T1 sequence (P21730 1-350): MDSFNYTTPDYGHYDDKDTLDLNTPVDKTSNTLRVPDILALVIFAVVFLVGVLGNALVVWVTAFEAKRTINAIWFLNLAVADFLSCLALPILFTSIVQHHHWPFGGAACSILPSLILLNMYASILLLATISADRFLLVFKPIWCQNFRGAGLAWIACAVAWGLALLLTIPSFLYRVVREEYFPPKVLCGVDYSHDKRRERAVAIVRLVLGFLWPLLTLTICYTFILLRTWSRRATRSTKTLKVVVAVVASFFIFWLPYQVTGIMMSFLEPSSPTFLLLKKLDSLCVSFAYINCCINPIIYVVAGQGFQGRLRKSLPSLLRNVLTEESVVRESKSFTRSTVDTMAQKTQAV
Nature of the assay: Determination of the IC50 value in an enzyme release assay (functional assay, antagonistic activity). Type of assay: cell-based. Conditions: antagonistic activity; IC50 group in enzyme release assay, RBL cells expressing human C5aR(CD88); read-out: activity (group).
As to `CC(C)CC[C@H]1NC(=O)[C@H](CO)NC(=O)[C@@H](NC(=O)[C@@H](N)Cc2ccccc2)CCCNC(=O)[C@H](CC(C)C)NC(=O)[C@H](Cc2ccc(F)cc2)NC1=O` [Compound 387, H-Phe-[Orn-Ser-hle-Pff-Leu]] (H-F[Orn]S[d(hLeu)][Phe(4-F)]L; lactam 2-C), the IC50 was in the range of 0.05 to 0.2 µM.
Still for that read-out and setting: to `CC(=O)N[C@@H](Cc1ccccc1)C(=O)N[C@H]1CCCNC(=O)[C@H](CCN)NC(=O)[C@H](Cc2c[nH]c3ccccc23)NC(=O)[C@@H](CC2CCCCC2)NC(=O)[C@@H]2CCCN2C1=O` [compound 25] (Ac-F[Orn]P[dCha]W[Dab]; lactam 2-C) belongs 0.05 to 0.2 µM.
`CC(=O)N[C@@H](Cc1ccccc1)C(=O)N[C@@H](CCCCN)C(=O)N1CCC[C@H]1C(=O)N[C@H](CC1CCCCC1)C(=O)N[C@@H](Cc1c[nH]c2ccccc12)C(=O)N[C@@H](Cc1ccccc1)C(N)=O` [Compound 87, Ac-Phe-Lys-Pro-cha-Trp-Phe-NH2] (Ac-FKP[dCha]WF-NH2): the IC50 lay in the range of 0.05 to 0.2 µM.
Same read-out and setting: for `CC(=O)N[C@@H](Cc1ccccc1)C(=O)N[C@@H](CCN)C(=O)N1CC[C@H]1C(=O)N[C@H](CC1CCCCC1)C(=O)N[C@@H](Cc1csc2ccccc12)C(=O)N[C@@H](Cc1ccccc1)C(N)=O` [Compound 213, Ac-Phe-Dab-Aze-cha-Bta-Phe-NH2] (Ac-F[Dab][Aze][dCha][Bta]F-NH2) the value was 0.02 to 0.05 µM; for `CC(=O)N[C@@H](Cc1ccccc1)C(=O)N[C@@H](CCCN)C(=O)N1CCC[C@H]1C(=O)N[C@H](CC1CCCCC1)C(=O)N[C@@H](Cc1csc2ccccc12)C(=O)N[C@@H](Cc1ccc(F)c(F)c1)C(N)=O` [Compound 251, Ac-Phe-Orn-Pro-cha-Bta-Dff-NH2] (Ac-F[Orn]P[dCha][Bta][Phe(3,4-F2)]-NH2), 0.02 to 0.05 µM; for `CCCC[C@@H]1NC(=O)[C@H](Cc2c[nH]c3ccccc23)NC(=O)[C@@H](CC2CCCCC2)NC(=O)[C@@H]2CCCN2C(=O)[C@@H](NCc2ccccc2)CCCNC1=O` [Compound 56, Ph-CH2-[Orn-Pro-cha-Trp-Nle]], 0.02 to 0.05 µM.
Still for that read-out and setting: to `CC(=O)N[C@@H](Cc1ccccc1)C(=O)N[C@@H](CCCN)C(=O)N1CCC[C@H]1C(=O)N[C@H](CCC(C)C)C(=O)N[C@@H](Cc1ccc(F)cc1)C(=O)N[C@@H](CC1CCCCC1)C(N)=O` [Compound 298, Ac-Phe-Orn-Pro-hle-Pff-Cha-NH2] (Ac-F[Orn]P[d(hLeu)][Phe(4-F)][Cha]-NH2) belongs 0.05 to 0.2 µM.
As to `CCCC[C@@H]1NC(=O)[C@H](Cc2ccc(F)cc2)NC(=O)[C@@H](CC2CCCCC2)NC(=O)[C@@H]2CCCN2C(=O)[C@@H](NC(=O)[C@H](Cc2ccccc2)NC(C)=O)CCCNC1=O` [Compound 186, Ac-Phe-[Orn-Pro-cha-Pff-Nle]] (Ac-F[Orn]P[dCha][Phe(4-F)][Nle]; lactam 2-C), the IC50 was in the range of 0.05 to 0.2 µM.
Still for that read-out and setting: to `CC(=O)N[C@@H](Cc1ccccc1)C(=O)N[C@@H](CCCN)C(=O)N1CCC[C@H]1C(=O)N[C@@H](C(=O)N[C@@H](Cc1c[nH]c2ccccc12)C(=O)N[C@@H](Cc1ccccc1)C(N)=O)C1CCCCC1` [Compound 109, Ac-Phe-Orn-Pro-chg-Trp-Phe-NH2] (Ac-F[Orn]P[dChg]WF-NH2) belongs 0.05 to 0.2 µM; to `CC(=O)N[C@@H](Cc1ccccc1)C(=O)N[C@@H](CCCN)C(=O)N1CCC[C@H]1C(=O)N[C@H](CCC(C)C)C(=O)N[C@@H](Cc1csc2ccccc12)C(=O)N[C@@H](Cc1cccc2ccccc12)C(N)=O` [Compound 270, Ac-Phe-Orn-Pro-hle-Bta-1Ni—NH2] (Ac-F[Orn]P[d(hLeu)][Bta][1Nal]-NH2), 0.05 to 0.2 µM; to `CC(=O)N1C[C@H](O)C[C@H]1C(=O)N[C@@H](Cc1ccccc1)C(=O)N[C@@H](CCCN)C(=O)N1CC[C@H]1C(=O)N[C@H](CC1CCCCC1)C(=O)N[C@@H](Cc1csc2ccccc12)C(=O)N[C@@H](Cc1ccccc1)C(N)=O` [Compound 159, Ac-Hyp-Phe-Orn-Aze-cha-Bta-Phe-NH2] (Ac-[Hyp]F[Orn][Aze][dCha][Bta]F-NH2), 0.02 to 0.05 µM.
In the case of `CCCC[C@@H]1NC(=O)[C@H](Cc2ccc(F)cc2)NC(=O)[C@@H](CCC(C)C)NC(=O)[C@H](CO)NC(=O)[C@@H](NC(=O)[C@@H](N)Cc2ccccc2)CCCNC1=O` [Compound 388, H-Phe-[Orn-Ser-hle-Pff-Nle]] (H-F[Orn]S[d(hLeu)][Phe(4-F)][Nle]; lactam 2-C), the IC50 was in the range of 0.02 to 0.05 µM.
Still for that read-out and setting: to `CC(=O)N[C@@H](Cc1ccccc1)C(=O)N[C@@H](CCCN)C(=O)N1CCC[C@H]1C(=O)N[C@H](CC1CCCCC1)C(=O)N[C@@H](Cc1csc2ccccc12)C(=O)N[C@@H](Cc1cccc2ccccc12)C(N)=O` [Compound 249, Ac-Phe-Orn-Pro-cha-Bta-1Ni—NH2] (Ac-F[Orn]P[dCha][Bta][1Nal]-NH2) belongs 0.05 to 0.2 µM; to `NCCC[C@H](NC(=O)CCc1ccccc1)C(=O)N1CC[C@H]1C(=O)N[C@H](CC1CCCCC1)C(=O)N[C@@H](Cc1csc2ccccc12)C(=O)N[C@@H](Cc1ccccc1)C(N)=O` [Compound 106, 3PP-Orn-Aze-cha-Bta-Phe-NH2] (Hydrocinnamoyl-[Orn][Aze][dCha][Bta]F-NH2), 0.05 to 0.2 µM.
Still for that read-out and setting: to `CC(=O)N[C@@H](Cc1ccccc1)C(=O)N[C@@H](CCCN)C(=O)N1CCC[C@H]1C(=O)N[C@H](CCC(C)C)C(=O)N[C@@H](Cc1ccc(F)cc1)C(=O)N[C@@H](Cc1ccc(F)cc1)C(N)=O` [Compound 301, Ac-Phe-Orn-Pro-hle-Pff-Pff-NH2] (Ac-F[Orn]P[d(hLeu)][Phe(4-F)][Phe(4-F)]-NH2) belongs 0.05 to 0.2 µM; to `CC(=O)N[C@H](C(=O)N[C@@H](Cc1ccccc1)C(=O)N[C@@H](CCCN)C(=O)N1CC[C@H]1C(=O)N[C@H](CC1CCCCC1)C(=O)N[C@@H](Cc1csc2ccccc12)C(=O)N[C@@H](Cc1ccccc1)C(N)=O)[C@@H](C)O` [Compound 314, Ac-Thr-Phe-Orn-Aze-cha-Bta-Phe-NH2] (Ac-TF[Orn][Aze][dCha][Bta]F-NH2), 0.02 to 0.05 µM.
The same measure, in the same setting: for `CC(=O)N[C@@H](Cc1ccccc1)C(=O)N[C@@H](CCCN)C(=O)N1CCC[C@H]1C(=O)N[C@H](CCC1CCCCC1)C(=O)N[C@@H](Cc1c[nH]c2ccccc12)C(=O)N[C@@H](Cc1ccccc1)C(=O)O` [Compound 132, Ac-Phe-Orn-Pro-hch-Trp-Phe-OH] (Ac-F[Orn]P[d(hCha)]WF-OH) the value was 0.05 to 0.2 µM; for `CC(=O)N[C@@H](CC(=O)N[C@@H](CCCN)C(=O)N1CCC[C@H]1C(=O)N[C@H](CC1CCCCC1)C(=O)N[C@@H](Cc1csc2ccccc12)C(=O)N[C@@H](Cc1ccccc1)C(N)=O)c1ccccc1` [Compound 125, Ac-Eby-Orn-Pro-cha-Bta-Phe-NH2] (Ac-[dβ3hPhg][Orn]P[dCha][Bta]F-NH2), 0.02 to 0.05 µM.
On to `CCN(CC)CCC[C@H](NC(=O)[C@H](Cc1ccccc1)NC(C)=O)C(=O)N1CCC[C@H]1C(=O)N[C@H](CC1CCCCC1)C(=O)N[C@@H](Cc1csc2ccccc12)C(=O)N[C@@H](Cc1ccccc1)C(N)=O` [Compound 233, Ac-Phe-OrE-Pro-cha-Bta-Phe-NH2] (Ac-F[X5]P[dCha][Bta]F-NH2), for which the IC50 lay within 0.05 to 0.2 µM.
Still for that read-out and setting: for `CC(=O)N[C@@H](Cc1ccccc1)C(=O)N[C@@H](CCCN)C(=O)N1CCC[C@H]1C(=O)N[C@H](CCC(C)C)C(=O)N[C@@H](Cc1csc2ccccc12)C(=O)N[C@@H](Cc1ccc2ccccc2c1)C(N)=O` [Compound 271, Ac-Phe-Orn-Pro-hle-Bta-2Ni—NH2] (Ac-F[Orn]P[d(hLeu)][Bta][2Nal]-NH2) the value was 0.05 to 0.2 µM; for `CC(=O)N[C@@H](C)C(=O)N[C@@H](Cc1ccccc1)C(=O)N[C@@H](CCCN)C(=O)N1CC[C@H]1C(=O)N[C@H](CC1CCCCC1)C(=O)N[C@@H](Cc1csc2ccccc12)C(=O)N[C@@H](Cc1ccccc1)C(N)=O` [Compound 151, Ac-Ala-Phe-Orn-Aze-cha-Bta-Phe-NH2] (Ac-AF[Orn][Aze][dCha][Bta]F-NH2), 0.02 to 0.05 µM; for `CC(C)CC[C@H]1NC(=O)[C@@H]2C[C@@H](O)CN2C(=O)[C@@H](NC(=O)[C@@H](N)Cc2ccccc2)CCCNC(=O)[C@H](Cc2ccccc2)NC(=O)[C@H](Cc2ccc(F)cc2)NC1=O` [Compound 366, H-Phe-[Orn-Hyp-hle-Pff-Phe]] (H-F[Orn][Hyp][d(hLeu)][Phe(4-F)]F; lactam 2-C), 0.05 to 0.2 µM.
Same read-out and setting: for `CC(=O)N[C@@H](Cc1ccccc1)C(=O)N[C@@H](CCCN)C(=O)N1CCC[C@H]1C(=O)N[C@H](CC1CCCCC1)C(=O)N[C@@H](Cc1c[nH]c2ccccc12)C(=O)N[C@@H](Cc1ccc(C(C)(C)C)cc1)C(N)=O` [Compound 68, Ac-Phe-Orn-Pro-cha-Trp-Eap-NH2] (Ac-F[Orn]P[dCha]W[Phe(4-tBu)]-NH2) the value was 0.2 to 2 µM.
`CC(=O)N[C@@H](Cc1ccccc1)C(=O)N[C@@H](CCC(=O)O)C(=O)N1CCC[C@H]1C(=O)N[C@H](CC1CCCCC1)C(=O)N[C@@H](Cc1c[nH]c2ccccc12)C(=O)N[C@@H](Cc1ccccc1)C(N)=O` [Compound 91, Ac-Phe-Glu-Pro-cha-Trp-Phe-NH2] (Ac-FEP[dCha]WF-NH2): the IC50 is 0.2 to 2 µM.
Still for that read-out and setting: for `CC(=O)N[C@@H](Cc1ccccc1)C(=O)N[C@@H](CCCNC(=N)N)C(=O)N1CCC[C@H]1C(=O)N[C@H](CCC(C)C)C(=O)N[C@@H](Cc1cccc(Cl)c1)C(=O)N[C@@H](Cc1ccccc1)C(N)=O` [Compound 208, Ac-Phe-Arg-Pro-hle-Mcf-Phe-NH2] (Ac-FRP[d(hLeu)][Phe(3-Cl)]F-NH2) the value was 0.05 to 0.2 µM.

The same assay, now with this note: functional assay of example 11; noteworthy = IC50 less than 200 nM.
Turning to `CC(=O)N[C@@H](Cc1ccccc1)C(=O)N[C@H]1CCCNC(=O)[C@H](Cc2ccncc2)NC(=O)[C@H](Cc2c[nH]c3ccccc23)NC(=O)[C@@H](CC2CCCCC2)NC(=O)[C@@H]2CCCN2C1=O` [Ac-Phe-[Orn-Pro-cha-Trp-Ppa]] (Ac-F[Orn]P[dCha]W[4Pal]; lactam 2-C), the “inhibitory activity (in words)” value is given as “noteworthy inhibitory activity”.

Values taken from US20080161232A1, “C5a Receptor Antagonist” (JERINI AG, priority 2005, published 2008).
